“And” between values parts separate entries of the source, which are not always exact repeats. Identical values can stand only once.
Test system: S. aureus NRS384 strain
Assay: Biofilm assay (96-well microtiter plate, crystal violet staining)
Assay type: cell-based, Staphylococcus aureus
Details: for Inhibition of biofilm formation (vs treated with DMSO %): NRS384, single replicates
Method: Methicillin-resistant Staphylococcus aureus (MRSA) USA300 strain NRS384 (Strain USA300-0114, NR-46070), was provided by the Network on Antimicrobial Resistance in Staphylococcus aureus (NARSA) for distribution by BEI Resources, NIAID, NIH. The NRS384 strain was grown in Todd-Hewitt broth containing 0.2% yeast extract (THY) (Difco, Detroit, MI, USA). The medium for growth of static biofilms was THY with 0.5% glucose. All bacterial cultures were incubated at 37°C.
The biofilm assay was performed using 96-well polystyrene flat-bottom microtiter plate as described previously. Overnight cultures of S. aureus were diluted 1:200 with fresh THY medium containing 0.5% glucose. […] Non-adherent bacteria were washed away by PBS three times. Biofilms attached to microtiter plates were stained by crystal violet solution (Sigma-Aldrich, St. Louis, MO, USA) for 15 min. Excess stain was removed by washing with PBS. The crystal violet attached to biofilm samples was dissolved with ethanol. The absorbance at 595 nm was measured using Spectrostar Nano spectrophotometer (BMG Labtech, Ortenberg, Germany) as the value of biofilm formation. Percentage inhibition of sample treated with CCG-211790 was calculated against the mean of samples treated with DMSO. […] IC50 (the half maximal inhibitory concentration) was estimated.
Statistical analysis of the results was performed using a two-sided Student’s t-test. Dose Response fitting function in Origin was used to calculate the IC50. The IC50 was calculated by plotting the inhibition percentage (y) versus logarithm of dose (x), and fitting the data using the equation y=A1+A2−A1/1+10^(Logx0−x)p . IC50 was calculated as 10^logx0 . A1 stands for bottom asymptote, A2 stands for top asymptote and p is the hill slope (Origin 7.0, OriginLab Corporation, Northampton, MA, USA).

## COc1ccc2c(c1)-c1nc(SCC(F)(F)F)n(C)c(=O)c1C(C)(C)C2 [CCG-211790, 9-Methoxy-3,5,5-trimethyl-2-((2,2,2-trifluoroethyl)thio)-5,6-dihydrobenzo[h]quinazolin-4(3H)-one]
0.39 µM
  Inhibition of biofilm formation (vs treated with DMSO %): 3.94% and -13.46% and 12.53% and 16.63% and 8.53% and 4.38% and 18.40% and 26.22% and 15.26%
0.78 µM
  Inhibition of biofilm formation (vs treated with DMSO %): 8.82% and 2.09% and 10.90% and 24.07% and 16.41% and 12.91% and 26.42% and 26.03% and 21.14%
1.56 µM
  Inhibition of biofilm formation (vs treated with DMSO %): 29.00% and 47.10% and 40.37% and 45.73% and 49.67% and 47.05% and 51.47% and 53.42% and 52.45%
3.13 µM
  Inhibition of biofilm formation (vs treated with DMSO %): 41.76% and 55.22% and 48.72% and 60.18% and 56.46% and 59.74% and 54.01% and 55.58% and 57.14%
6.25 µM
  Inhibition of biofilm formation (vs treated with DMSO %): 62.41% and 64.27% and 61.48% and 70.02% and 63.24% and 70.24% and 69.08% and 70.25% and 66.93%
12.50 µM
  Inhibition of biofilm formation (vs treated with DMSO %): 65.20% and 63.57% and 64.97% and 75.93% and 70.24% and 70.02% and 75.73% and 75.34% and 73.19%
25.00 µM
  Inhibition of biofilm formation (vs treated with DMSO %): 70.30% and 69.84% and 74.25% and 79.43% and 78.99% and 75.05% and 76.52% and 81.02% and 80.63%
50.00 µM
  Inhibition of biofilm formation (vs treated with DMSO %): 79.58% and 79.12% and 79.35% and 82.49% and 82.28% (2×) and 80.23% and 79.06% and 83.76%
Staphylococcus aureus, MRSA / NRS 384 / USA300, S. aureus NRS384 (MRSA USA300), overnight 37°C, crystal violet, read-out: IC50 of the inhibition of biofilm formation
  IC50: 1.28 ± 0.45 µM

From PMC7870075, “Physicochemical properties and formulation development of a novel compound inhibiting Staphylococcus aureus biofilm formation” (PLoS ONE, 2021)
